From the NIST ThermoML archive (doi:10.1016/j.fluid.2015.10.035)
± gives the expanded uncertainty stated by the source.

How the values were obtained:
[1] = 293.15 K; 101.33 kPa; Liquid; Vibrating tube method
[2] = refractive index (Na D-line) (dimensionless); conditions: 293.15 K; 101.33 kPa; Liquid; Standard Abbe refractometry
[3] = Boiling temperature at pressure P; conditions: 101.3 kPa; Liquid; Closed cell (Static) method

mass density [1] [kg/m3]	refractive index [2]	Boiling temperature at pressure P [3] [°C]	Structure (SMILES)
782.1 ± 0.4	1.3439 ± 0.0004	81.44 ± 0.1	CC#N [acetonitrile]
786 ± 0.4	1.3773 ± 0.0004	82.34 ± 0.1	CC(C)O [propan-2-ol]
